Experimental data reported in publication PMC4535769, “The Carboxy Terminus of the Ligand Peptide Determines the Stability of the MHC Class I Molecule H-2K^b: A Combined Molecular Dynamics and Experimental Study” (PLoS ONE, 2015).
Read-outs that look alike come from different tables or passages of the source. Ends that are not written are not given here.

Experiments:
[1] = target: T1, cell surface K^b, RMA-S cells (Mus musculus, UniProt P01901); assay: Brefeldin A (BFA) decay assay, cell surface K^b on RMA-S cells; type: cell-based, murine; details: 10 μM peptide, 10 μg/ml BFA, 37°C, after four hours, MAb Y3, flow cytometry, n = 3
T1 construct: endogenous in cells; host or cells: RMA-S cells (TAP-deficient)
T1 sequence (P01901 22-369): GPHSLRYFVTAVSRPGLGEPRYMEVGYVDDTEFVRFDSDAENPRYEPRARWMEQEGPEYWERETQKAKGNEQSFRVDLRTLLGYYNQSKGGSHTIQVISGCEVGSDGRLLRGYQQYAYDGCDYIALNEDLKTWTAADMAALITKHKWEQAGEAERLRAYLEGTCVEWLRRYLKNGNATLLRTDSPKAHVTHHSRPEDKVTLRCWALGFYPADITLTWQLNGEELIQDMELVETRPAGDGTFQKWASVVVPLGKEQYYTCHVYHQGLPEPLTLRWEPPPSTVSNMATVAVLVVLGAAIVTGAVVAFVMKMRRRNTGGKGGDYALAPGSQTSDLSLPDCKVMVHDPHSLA
T1 sequence (P01887 21-119 partner): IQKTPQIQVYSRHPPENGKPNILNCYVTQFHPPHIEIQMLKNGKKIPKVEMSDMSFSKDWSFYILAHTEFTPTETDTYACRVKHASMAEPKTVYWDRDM
Procedure: RMA-S cells were kept overnight at 25°C and at t = 0 treated with 10 μg/ml BFA (Applichem or Alfa Aesar) and with 10 μM peptide and transferred to 37°C for a maximum of 4 hours. At different time points, cells were washed twice with 1x PBS/0.01% NaN3, and cell surface K^b was measured with the MAb Y3 by flow cytometry.
We then incubated these cells with each peptide and measured the surface residence time of the K^b/peptide complexes by withdrawing aliquots of cells at different times, fixing, and staining with the antibody Y3 followed by flow cytometry (Fig 7, S1I Fig).
RMA-S cells were incubated overnight at 25°C, then 10 μM peptide (as indicated) was added to the medium, and cells were transferred to 37°C. H-2K^b surface levels were determined at each time point with MAb Y3 and flow cytometry. Averages ± SEM (n = 3) are normalized to initial mean fluorescence intensity (MFI).

K^b/β2m [2] = target: T2, K^b/β2m (Mus musculus, UniProt P01901); assay: Competitive binding against SIINFEKTAMRAL measured by fluorescence anisotropy (IC50); set-up: species or system murine
T2 construct: The TDTF analysis was performed on the luminal domain of K^b, which was produced in E.coli; made in house
Procedure: Steady state measurements were performed with peptide-free folding reactions of K^b/β2m.
K^b was folded empty and then incubated with different concentrations of each peptide variant for five minutes. Then, the index peptide SIINFEKTAMRAL (fluorescently labeled on the lysine side chain) was added as a competitor, and the endpoint of its binding was measured by fluorescence anisotropy. From theory curves fitted to the data, we calculated the half-maximal concentration of inhibition of SIINFEKTAMRAL binding (IC50) for each modified peptide (Fig 6, S1F Fig).
Fig 6 Half-maximal concentration of peptide (IC50) required to inhibit the binding of the high affinity peptide SIINFEKTAMRAL. K^b/β2m complexes derived from the […] (B) structures were folded empty and then incubated for 5 minutes with different concentrations of full-length, truncated, or modified peptides. […] Binding curves (left) are of one representative experiment, and the IC50 values (right) are the average of three experiments.

K^b/β2m [3] = target: T2, K^b/β2m; assay: Thermal denaturation by tryptophan fluorescence (TDTF) of K^b/β2m/peptide complexes; type: binding, murine; details: for ∆GTDTF: derived from TDTF measurements by the two-state, single-transition model
Procedure: TDTF measurements and Tm determination were performed exactly as described previously [36].
To test our ranking by experiment, we next used the TDTF (thermal denaturation measured by tryptophan fluorescence) assay to determine the Tm of the K^b/peptide complexes. In this assay, thermal unfolding of the class I molecule is measured by the decrease in fluorescence intensity that occurs when the tryptophan indoles are exposed to the aqueous environment [49, 50]. The TDTF analysis was performed on the luminal domain of K^b, which was produced in E.coli and folded from inclusion bodies as a complex with human β2m and with or without peptide [36]. […] From the Tm values, we derived the ΔΔGTDTF values using the two-state model of denaturation [50, 51].
The folded heavy chain/β2m/peptide complex was prepared by diluting 200 ‏‏µg of the K^b heavy chain, 200 ‏‏µg of human β2m (both produced in E. coli), and none or 10 µM of peptide into 2 ml of the refolding buffer (100 mM Tris-Cl pH 8, 0.5 M arginine, 2 mM EDTA, 0.5 mM oxidized glutathione, 5 mM reduced glutathione), and the reaction was incubated at 4 °C for 48 hours, then ultracentrifuged at 10^5 ×g for 20 min to sediment aggregates. Concentration of soluble protein was then determined using the Bradford assay.
The folded complex was measured in PBS (150 mM NaCl, 10 mM phosphate pH 7.4) in a 1 cm × 1 cm cuvette in a Cary Eclipse fluorimeter (Agilent, Waldbronn, Germany) equipped with a Peltier heater and an in-cuvette thermocouple. The sample was heated at 0.30 K/min, and fluorescence values (λex= 290 nm, λem= 345 nm) were recorded every 0.1 K.
The differentials (F(T+∆T) – F(T))/∆T (with F = fluorescence intensity and ∆T = the temperature interval of recording) were smoothed over 40 points. The minimum of the resulting curve allows a simple optical assessment of the Tm. For display, LOWESS fits [17] to the differentials were performed with GraphPad Prism (GraphPad, La Jolla, CA, USA).
The binding free energy components were derived from the TDTF measurements according to the two-state, single-transition model [18,19]. […]

[4] = K^b/β2m folded empty, incubated 5 min with peptide, then 100 nM SIINFEKTAMRAL, fluorescence anisotropy endpoint, average of three experiments, read-out: IC50, inhibition of SIINFEKTAMRAL binding

T2 sequence (P61769 21-119 partner, one chain of several): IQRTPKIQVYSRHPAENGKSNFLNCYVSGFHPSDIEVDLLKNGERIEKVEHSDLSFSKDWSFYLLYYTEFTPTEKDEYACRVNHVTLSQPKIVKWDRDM

CC(C)C[C@H](NC(=O)[C@H](C)NC(=O)[C@@H]1CCCN1C(=O)[C@H](Cc1ccc(O)cc1)NC(=O)[C@H](CC(N)=O)NC(=O)CNC(=O)[C@@H]1CCCN1C(=O)[C@H](C)NC(=O)[C@@H](N)Cc1ccccc1)C(=O)O [FAPGNYPAL]
K^b/peptide complexes remaining on the cell surface [1]: more than 80%

CC[C@H](C)[C@H](NC(=O)[C@@H](NC(=O)[C@@H](N)CO)[C@@H](C)CC)C(=O)N[C@@H](CC(N)=O)C(=O)N[C@@H](Cc1ccccc1)C(=O)N[C@@H](CCC(=O)O)C(=O)N[C@@H](CCCCN)C(=O)N[C@@H](CC(C)C)C(=O)O [reference compound]
IC50 (K^b/β2m [2]; [4]): 190 nM | K^b/peptide complexes remaining on the cell surface [1]: more than 80%

APGNYPAL [APGNYPAL]
IC50 (K^b/β2m [2]): 150 nM

FAPGNYPA
IC50 (K^b/β2m [2]): 18000 nM

SIINFEKA
IC50 (K^b/β2m [2]; [4]): 120 nM

SIINFEKG
∆GTDTF (K^b/β2m [3]): -92.6 ± 9.2 kcal/mol

SIINFEKL-Cdel
∆GTDTF (K^b/β2m [3]): -83.8 ± 8.3 kcal/mol | ∆∆GTDTF (K^b/β2m [3]; derived from Tm by the two-state model, relative to the full-length peptide): 20.7 kcal/mol
